# Experimental data reported in the supplement of paper PMC11451515.
# Tested on: NOMO1
# Assay: cell viability relative to DMSO control; higher = less cytotoxic
# Details: 48 h
# Procedure, shortened: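 NOMO1 or SEM (500 cells/well) or P12-Ichikawa (1000 cells/well) leukemia cells were adapted for at least four passages in each medium. They were seeded in 1536-well plates (5 μl) and pin-dosed with library compounds in DMSO over an 11-point threefold series, 47 μM to 0.79 nM. CellTiter-Glo One luminescence was read after 48 h at 37°C. Viability is the per-plate percentage relative to DMSO wells, with cell-free wells as background.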
# [1] = HPLM + 10% dialyzed FBS, 0.000781 µM
# [2] = HPLM + 10% dialyzed FBS, 0.00234 µM
# [3] = HPLM + 10% dialyzed FBS, 0.00702 µM
# [4] = HPLM + 10% dialyzed FBS, 0.0211 µM
# [5] = HPLM + 10% dialyzed FBS, 0.0632 µM
# [6] = HPLM + 10% dialyzed FBS, 0.19 µM
# [7] = HPLM + 10% dialyzed FBS, 0.569 µM
# [8] = HPLM + 10% dialyzed FBS, 1.71 µM
# [9] = HPLM + 10% dialyzed FBS, 5.12 µM
# [10] = HPLM + 10% dialyzed FBS, 15.4 µM
# [11] = HPLM + 10% dialyzed FBS, 46.1 µM
# [12] = RPMI 5 mM glucose + 10% FBS, 0.000781 µM
# [13] = RPMI 5 mM glucose + 10% FBS, 0.00234 µM
# [14] = RPMI 5 mM glucose + 10% FBS, 0.00702 µM
# [15] = RPMI 5 mM glucose + 10% FBS, 0.0211 µM
# [16] = RPMI 5 mM glucose + 10% FBS, 0.0632 µM
# [17] = RPMI 5 mM glucose + 10% FBS, 0.19 µM
# [18] = RPMI 5 mM glucose + 10% FBS, 0.569 µM
# [19] = RPMI 5 mM glucose + 10% FBS, 1.71 µM
# [20] = RPMI 5 mM glucose + 10% FBS, 5.12 µM
# [21] = RPMI 5 mM glucose + 10% FBS, 15.4 µM
# [22] = RPMI 5 mM glucose + 10% FBS, 46.1 µM
# [23] = RPMI 5 mM glucose + 10% dialyzed FBS, 0.000781 µM
# [24] = RPMI 5 mM glucose + 10% dialyzed FBS, 0.00234 µM
# [25] = RPMI 5 mM glucose + 10% dialyzed FBS, 0.00702 µM
# [26] = RPMI 5 mM glucose + 10% dialyzed FBS, 0.0211 µM
# [27] = RPMI 5 mM glucose + 10% dialyzed FBS, 0.0632 µM
# [28] = RPMI 5 mM glucose + 10% dialyzed FBS, 0.19 µM
# [29] = RPMI 5 mM glucose + 10% dialyzed FBS, 0.569 µM
# [30] = RPMI 5 mM glucose + 10% dialyzed FBS, 1.71 µM
# [31] = RPMI 5 mM glucose + 10% dialyzed FBS, 5.12 µM
# [32] = RPMI 5 mM glucose + 10% dialyzed FBS, 15.4 µM
# [33] = RPMI 5 mM glucose + 10% dialyzed FBS, 46.1 µM
Compound,cell viability [1] [%],cell viability [2] [%],cell viability [3] [%],cell viability [4] [%],cell viability [5] [%],cell viability [6] [%],cell viability [7] [%],cell viability [8] [%],cell viability [9] [%],cell viability [10] [%],cell viability [11] [%],cell viability [12] [%],cell viability [13] [%],cell viability [14] [%],cell viability [15] [%],cell viability [16] [%],cell viability [17] [%],cell viability [18] [%],cell viability [19] [%],cell viability [20] [%],cell viability [21] [%],cell viability [22] [%],cell viability [23] [%],cell viability [24] [%],cell viability [25] [%],cell viability [26] [%],cell viability [27] [%],cell viability [28] [%],cell viability [29] [%],cell viability [30] [%],cell viability [31] [%],cell viability [32] [%],cell viability [33] [%]
O=C(O)c1cc(O)c2c(c1)C(=O)c1cccc(O)c1C2=O,113,111,127,107,127,117,127,125,113,104,94.3,115,120,116,121,114,101,103,110,107,99.5,104,110,119,102,121,112,107,112,119,119,95.4,96.2
C[C@H](NC(=O)Cc1cc(F)cc(F)c1)C(=O)N[C@H](C(=O)OC(C)(C)C)c1ccccc1,98.4,110,98.2,101,111,91.2,101,73.8,91.6,91.3,80.3,88.9,84.9,92.2,80.8,92,87.4,76.1,79.3,76.4,81.9,75.4,95.3,85.3,94,85.2,101,92.9,91.4,92.7,92.6,79.5,82.8
c1cc(-c2cnn3cc(-c4ccc(OCCN5CCCCC5)cc4)cnc23)ccn1,95.4,83.7,101,87.5,83.1,88.8,88.6,67.2,76.1,72.8,30.5,83.1,88.8,87.4,81.2,83.9,83.4,80.6,80.9,80.4,85.9,80.2,80.1,84.5,82.6,86.9,89.5,86.5,79.6,84,78.3,80.9,74
NC(=O)c1cccc(-c2cc(Nc3ccc(OC(F)(F)F)cc3)ncn2)c1,88.6,99.5,96,93.9,108,101,97.2,94.1,103,84.5,81.4,85.8,91,93.4,95.7,90,103,103,85.8,90.3,84.1,80.5,91.7,94.7,84.3,86.1,93.3,92.8,88.2,89.1,94.2,79.6,91.7
C[C@]12CC[C@H]3[C@@H](CC(=C)\C4=C\C(=O)\C=C/[C@]34C)[C@@H]1CCC2=O,111,105,92.2,107,105,99.1,99.1,113,119,99.6,52.8,99.5,89.3,95.8,90.4,92.6,92.1,97.8,90.6,81.6,80.3,74.9,75.8,100,99.7,108,98.3,91.6,94.4,102,92.5,86.4,61.8
OC1=CC=C(C=C1)C/2=C/C3=C(OC2)C=C(O)C=C3,118,123,114,111,118,111,100,82.8,60.9,26.3,5.22,97.2,108,117,99.8,108,108,104,93.3,89.4,23.9,9.27,108,118,110,109,101,105,111,106,96.8,33.1,14.9
Cc1ccc(Nc2cc(-c3cccc(N4C(=O)c5ccccc5C4=O)c3)ncn2)cc1N[S+](C)(=O)[O-],107,113,156,123,127,149,128,140,153,132,107,–,–,–,–,–,–,–,–,–,–,–,–,–,–,–,–,–,–,–,–,–,–
NCCCC(N)(C(=O)O)C(F)F (centres undefined),–,–,–,–,–,–,–,–,–,–,–,123,137,122,125,132,111,125,120,109,107,95.1,121,112,115,113,126,112,108,125,100,111,90.1
CC(=O)OC[C@@H]1O[C@H]([C@H](OC(C)=O)[C@@H]1OC(C)=O)N2\C=C/C(=O)NC2=O,–,–,–,–,–,–,–,–,–,–,–,107,117,115,117,125,121,102,111,105,82.9,22.6,–,–,–,–,–,–,–,–,–,–,–
CCCCCCNC(=O)N1\C=C(F)/C(=O)NC1=O,117,136,124,127,128,137,122,124,118,94.6,79.9,111,119,136,109,109,114,129,127,122,115,83.9,124,136,124,122,110,128,130,120,110,82.3,69.6
CN1CCc2c(c3ccccc3n2Cc2ccc(C(=O)NO)cc2)C1,76,78.8,76.3,79.8,80,80.5,82.6,87.6,97.5,64.7,38.6,75.2,70.2,77.2,82.5,74.1,73.4,80.9,76.5,75.8,78.7,47.2,71.5,69.8,91.9,91.1,84.6,87.7,89.5,98,92.5,72.3,53.5
Cc1cc(Nc2cc(N3CCN(C)CC3)nc(/C=C/c3ccccc3)n2)n[nH]1,111,122,117,122,135,114,130,53.7,14.8,5.4,5.88,106,98.4,110,112,115,123,100,47.6,13.3,4.18,3.81,108,104,111,104,110,114,105,56.3,24.2,7.24,5
O=C(O)CCCCCC(=O)NN=C1CCCC1,99.6,96,116,122,107,120,126,132,122,130,133,105,111,111,112,102,100,112,103,116,123,129,91.2,92.8,97.9,110,105,115,96.6,109,118,121,103
Cc1ccc2nc(NCCN)c3ncc(C)n3c2c1,116,99.9,121,104,108,107,105,101,113,88.7,8.31,88.1,92.2,91.9,94.1,98.1,98.4,100,87.8,90.2,84.9,11.3,87.9,95.8,104,104,99,96,95.6,96.7,100,81.6,7.57
CNc1nc(-c2ccc3c(N)n[nH]c3c2)cc(N2C[C@@H](C(=O)NC3CCCCC3)CC[C@H]2C)n1,76.9,82.3,79.8,95,94.8,89.2,68.2,64.5,55.9,64.2,17.7,73.9,78,76.2,80.4,89.3,80.3,77.1,84.2,69.9,73.8,19,75.9,91.8,79.2,92.5,90.2,85.5,70.3,70.8,68.2,68.2,29.7
COC1=CC=C(C=C1)/C2=C(O)/C(=O)C3=C(O)C=C(O)C(=C3O2)CC=C(C)C,105,120,122,114,132,117,115,127,124,104,130,–,–,–,–,–,–,–,–,–,–,–,–,–,–,–,–,–,–,–,–,–,–
CO[C@H]1CCC(O[C@H]2C[C@H]([C@]3(C)CC[C@]4(C[C@H](O)[C@@H](C)[C@@H]([C@@H](C)/C=C(\C)C(=O)[C@H](C)C[C@H](C)C(=O)[O-])O4)O3)O[C@]3(O[C@@H]([C@H]4O[C@@](O)(CO)[C@H](C)C[C@@H]4C)C[C@@H]3C)[C@@H]2C)O[C@@H]1C (some centres undefined),112,124,136,109,134,101,118,88.8,84.4,63.7,55.1,123,121,113,122,145,121,124,118,111,97.6,67.7,112,122,133,118,111,114,132,106,48.9,78.2,64.2
